Source: patent US7910751B2, “Heterocyclidene acetamide derivative” (Mochida Pharmaceutical Co., Ltd., priority 2005, dated 2011)

Molecular target: T1, human TRPV1 (Homo sapiens, UniProt Q8NER1)
T1 construct: expressed in transfected cells; host or cells: CHO-K1
Experiment: Measurement of capsaicin-induced Ca influx in human TRPV1 transformed CHO cell line using FDSS-6000
Format: cell-based
Settings: concentration at which the capsaicin concentration-reaction curve is shifted two times to the right, human TRPV1 transformed CHO cells
Excerpt: [Measurement of Capsaicin-Induced Ca Influx in Human TRPV1 Transformed CHO Cell Line]
(1) Establishment of Human TRPV1 Transformed CHO Cell Line
Human vanilloid receptor 1 (hTRPV1) cDNA was cloned from a human brain. The cloned hTRPV1 cDNA was incorporated in a pCAGGS vector. The gene of the vector was introduced to a CHO-K1 cell line, thus performing transformation. Clones obtained by limiting dilution were stimulated with capsaicin. Clones with a high responsiveness were selected using an increase in the Ca concentration as an indicator. The selected clones were used for the following experiment.
(2) Measurement of Ca Influx Using FDSS-6000
The human TRPV1 transformed CHO cells were seeded in a 96-well plate (with black walls and transparent bottoms, manufactured by Greiner) at a density of 40,000 cells per well. The cells were cultured at 37° C. in 5% CO2 for one night. A loading solution of FLIPR Calcium 3 assay kit (manufactured by Molecular Devices Corporation) containing 2.5 mmol/L of probenecid was then added to each of the wells in the same amount as the culture medium, and the cells were cultured at 37° C. for 60 minutes. After the cells were stimulated with capsaicin (1 nmol/L to 1 μmol/L), the change in the Ca concentration in the cells was measured using FDSS-6000 (λex: 480 nm, λem: 540 nm, manufactured by Hamamatsu Photonics K.K.) for three minutes. The integrated values of the increase rate of the Ca concentration in the cells were calculated for a group treated with the compounds of the present invention and a group treated with a medium, thus allowing capsaicin concentration-reaction curves to be obtained. A concentration (A2 value) of each of the compounds of the present invention, at which the capsaicin concentration-reaction curve obtained when the cells were treated with the medium was shifted two times to the right side, was calculated. The inhibiting effects of the test compounds were compared using this value as an indicator.
In the case where a compound of the present invention is an agonist, when the cells are treated with the compound of the present invention prior to the capsaicin stimulation, the Ca influx is observed. In Table 1, compounds of the present invention having an A2 value of less than 100 nM are represented by A, and compounds having an A2 value of 100 nM or more are represented by B. When the A2 values of the compounds of the present invention were measured by the above-described method, the compounds have an intensity of 1 μM or less.

T1 sequence (Q8NER1 whole entry): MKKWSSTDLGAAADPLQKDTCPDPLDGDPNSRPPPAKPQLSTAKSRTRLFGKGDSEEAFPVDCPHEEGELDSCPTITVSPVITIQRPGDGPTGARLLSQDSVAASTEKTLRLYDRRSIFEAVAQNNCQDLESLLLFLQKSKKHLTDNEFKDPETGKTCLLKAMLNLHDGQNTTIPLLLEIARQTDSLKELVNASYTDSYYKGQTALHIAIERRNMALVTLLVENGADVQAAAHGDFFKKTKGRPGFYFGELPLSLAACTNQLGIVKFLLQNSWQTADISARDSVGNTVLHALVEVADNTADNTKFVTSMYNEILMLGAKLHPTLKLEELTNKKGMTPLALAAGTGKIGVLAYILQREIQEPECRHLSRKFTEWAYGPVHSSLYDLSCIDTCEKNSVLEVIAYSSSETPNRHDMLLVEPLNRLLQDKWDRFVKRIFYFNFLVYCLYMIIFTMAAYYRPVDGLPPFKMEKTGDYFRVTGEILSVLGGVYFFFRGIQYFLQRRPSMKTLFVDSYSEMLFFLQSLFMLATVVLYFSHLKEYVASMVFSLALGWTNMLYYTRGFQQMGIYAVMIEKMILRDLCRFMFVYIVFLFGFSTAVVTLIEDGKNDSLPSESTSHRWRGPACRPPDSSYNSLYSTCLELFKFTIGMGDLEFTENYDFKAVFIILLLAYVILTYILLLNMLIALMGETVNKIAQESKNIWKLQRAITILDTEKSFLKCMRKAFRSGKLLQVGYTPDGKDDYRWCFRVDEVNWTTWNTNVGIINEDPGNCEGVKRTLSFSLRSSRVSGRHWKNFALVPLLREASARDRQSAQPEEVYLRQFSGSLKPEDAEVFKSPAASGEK

For COc1cccc(NC(=O)/C=C2\CCCOc3cc(C(F)(F)F)ccc32)c1 [Example 16, (E)-2-(8-trifluoromethyl-3,4-dihydrobenzo[b]oxepin-5(2H)-ylidene)-N-(3-methoxyphenyl)acetamide], which “A2 VALUE” is on record?
Its value is “A (compounds of the present invention having an A2 value of less than 100 nM are represented by A)”.

With O=C(/C=C1\CCN(C(=O)C2CCC(F)(F)CC2)c2cc(C(F)(F)F)ccc21)Nc1cccc2c1CC(O)CC2 (centres unmarked) [Example 85, (E)-2-(1-(4,4-difluorocyclohexanecarbonyl)-7-trifluoromethyl-2,3-dihydroquinolin-4(1H)-ylidene)-N-(7-hydroxy-5,6,7,8-tetrahydronaphthalen-1-yl)acetamide] as the compound, how does the “A2 VALUE” read?
Its value is “A (compounds of the present invention having an A2 value of less than 100 nM are represented by A)”.

Which “A2 VALUE” does the source give for O=C(/C=C1\CCNc2cc(C(F)(F)F)ccc21)Nc1cccc2c1CC(O)CC2 (centres unmarked) [Example 106, (E)-2-(7-trifluoromethyl-2,3-dihydroquinolin-4(1H)-ylidene)-N-(7-hydroxy-5,6,7,8-tetrahydronaphthalen-1-yl)acetamide] here?
Its value is “A (compounds of the present invention having an A2 value of less than 100 nM are represented by A)”.

With CCCCC(=O)N1CC/C(=C\C(=O)Nc2cccc3c2CC(O)CN3)c2ccc(C(F)(F)F)cc21 (centres unmarked) [Example 108, (E)-2-(7-trifluoromethyl-2,3-dihydro-1-pentanoylquinolin-4(1H)-ylidene)-N-(3-hydroxy-1,2,3,4-tetrahydroquinolin-5-yl)acetamide] as the compound, how does the “A2 VALUE” read?
The value was “A (compounds of the present invention having an A2 value of less than 100 nM are represented by A)”.

With O=C(/C=C1\CCCOc2cc(C(F)(F)F)ccc21)NCc1nnc2ccccn12 [Example 40] as the compound, how does the “A2 VALUE” read?
Its value is “B (compounds having an A2 value of 100 nM or more are represented by B)”.

How did the “A2 VALUE” turn out when O=C(/C=C1\CCOc2cc(C(F)(F)F)c(F)cc21)Nc1cccc2c1CC(O)CC2 (centres unmarked) [Example 214, (E)-2-(6-fluoro-7-trifluoromethyl-chroman-4-ylidene)-N-(7-hydroxy-5,6,7,8-tetrahydronaphthalen-1-yl)acetamide] was run?
The value was “A (compounds of the present invention having an A2 value of less than 100 nM are represented by A)”.

With O=C(/C=C1\CCCOc2cc(C(F)(F)F)ccc21)Nc1ccc2c(c1)C(=O)CC2 [Example 157, (E)-2-(8-trifluoromethyl-3,4-dihydrobenzo[b]oxepin-5(2H)-ylidene)-N-(indan-1-on-6-yl)acetamide] as the compound, how does the “A2 VALUE” read?
Its value is “A (compounds of the present invention having an A2 value of less than 100 nM are represented by A)”.

For O=C(/C=C1/CCCOc2cc(C(F)(F)F)ccc21)Nc1ccc2cccnc2c1 [Example 247, (Z)-2-(8-trifluoromethyl-3,4-dihydrobenzo[b]oxepin-5(2H)-ylidene)-N-(quinolin-7-yl)acetamide], which “A2 VALUE” is on record?
The value was “A (compounds of the present invention having an A2 value of less than 100 nM are represented by A)”.

How did the “A2 VALUE” turn out when O=C(/C=C1\CCCOc2nc(C(F)(F)F)ccc21)Nc1cccc2c1CC(O)CC2 (centres unmarked) [Example 239, (E)-2-(8-trifluoromethyl-2,3,4,5-tetrahydrooxepino[2,3-b]pyridin-5-ylidene)-N-(7-hydroxy-5,6,7,8-tetrahydronaphthalen-1-yl)acetamide] was run?
Its value is “A (compounds of the present invention having an A2 value of less than 100 nM are represented by A)”.

O=C(/C=C1\CCCOc2cc(C(F)(F)F)ccc21)Nc1ccnc2ncnn12 [Example 44, (E)-N-([1,2,4]triazolo[1,5-a]pyrimidin-7-yl)-2-(8-trifluoromethyl-3,4-dihydrobenzo[b]oxepin-5(2H)-ylidene)acetamide] was tested. Which “A2 VALUE” did it give?
The value was “B (compounds having an A2 value of 100 nM or more are represented by B)”.

Cc1ccc(S(=O)(=O)N2CCC/C(=C\C(=O)Nc3ccc4cccnc4c3)c3ccc(C(F)(F)F)cc32)cc1 [Example 194, (E)-2-(1-(4-methylbenzenesulfonyl)-8-trifluoromethyl-1,2,3,4-tetrahydro-5H-benzo[b]azepin-5-ylidene)-N-(quinolin-7-yl)acetamide] was tested. Which “A2 VALUE” did it give?
The value was “B (compounds having an A2 value of 100 nM or more are represented by B)”.

With CCCCC(=O)N1CC/C(=C\C(=O)Nc2cccc3c2CC(O)C(=O)N3)c2ccc(C(F)(F)F)cc21 (centres unmarked) [Example 107, (E)-2-(7-trifluoromethyl-2,3-dihydro-1-pentanoylquinolin-4(1H)-ylidene)-N-(3,4-dihydro-3-hydroxy(1H)quinolin-2-on-5-yl)acetamide] as the compound, how does the “A2 VALUE” read?
The value was “A (compounds of the present invention having an A2 value of less than 100 nM are represented by A)”.

With O=C(/C=C1\CCCOc2cc(C(F)(F)F)ccc21)Nc1cccc2c1CC(O)CN2 (centres unmarked) [Example 218, (E)-2-(8-trifluoromethyl-3,4-dihydrobenzo[b]oxepin-5(2H)-ylidene)-N-(3-hydroxy-1,2,3,4-tetrahydroquinolin-5-yl)acetamide] as the compound, how does the “A2 VALUE” read?
Its value is “A (compounds of the present invention having an A2 value of less than 100 nM are represented by A)”.

With O=C(/C=C1\CCOc2cc(Cl)ccc21)Nc1cccc2c1CC(O)CC2 (centres unmarked) [Example 208, (E)-2-(7-chloro-chroman-4-ylidene)-N-(7-hydroxy-5,6,7,8-tetrahydronaphthalen-1-yl)acetamide] as the compound, how does the “A2 VALUE” read?
Its value is “A (compounds of the present invention having an A2 value of less than 100 nM are represented by A)”.

COCCC(=O)N1CC/C(=C\C(=O)Nc2ccc3cccnc3c2)c2ccc(C(F)(F)F)cc21 [Example 100, (E)-2-(7-trifluoromethyl-2,3-dihydro-1-(3-methoxypropanoyl)quinolin-4(1H)-ylidene)-N-(quinolin-7-yl)acetamide] was tested. Which “A2 VALUE” did it give?
Its value is “A (compounds of the present invention having an A2 value of less than 100 nM are represented by A)”.

For O=C(/C=C1\CCOc2ccccc21)Nc1ccc2c(c1)OCCO2 [Example 1, (E)-2-(chroman-4-ylidene)-N-(2,3-dihydrobenzo[b][1,4]dioxin-6-yl)acetamide], which “A2 VALUE” is on record?
The value was “B (compounds having an A2 value of 100 nM or more are represented by B)”.

O=C(/C=C1\CCCOc2cc(C(F)(F)F)ccc21)Nc1ccc2c(c1)N(C(=O)CO)CCO2 [Example 231] was tested. Which “A2 VALUE” did it give?
Its value is “B (compounds having an A2 value of 100 nM or more are represented by B)”.

O=C(/C=C1\CCCOc2cc(C(F)(F)F)ccc21)Nc1ccc2c(c1)C(O)CC2 (centres unmarked) [Example 175, (E)-2-(8-trifluoromethyl-3,4-dihydrobenzo[b]oxepin-5(2H)-ylidene)-N-(indan-1-ol-6-yl)acetamide] was tested. Which “A2 VALUE” did it give?
Its value is “A (compounds of the present invention having an A2 value of less than 100 nM are represented by A)”.

CCCCC(=O)N1CCC/C(=C\C(=O)Nc2ccc3cccnc3c2)c2ccc(C(F)(F)F)cc21 [Example 192, (E)-2-(1-pentanoyl-8-trifluoromethyl-1,2,3,4-tetrahydro-5H-benzo[b]azepin-5-ylidene)-N-(quinolin-7-yl)acetamide] was tested. Which “A2 VALUE” did it give?
Its value is “A (compounds of the present invention having an A2 value of less than 100 nM are represented by A)”.

With CN1CC(O)Cc2c(NC(=O)/C=C3\CCCOc4cc(C(F)(F)F)ccc43)cccc21 (centres unmarked) [Example 69, (E)-2-(8-trifluoromethyl-3,4-dihydrobenzo[b]oxepin-5-(2H)-ylidene)-N-(1-methyl-3-hydroxy-1,2,3,4-tetrahydroquinolin-5-yl)acetamide] as the compound, how does the “A2 VALUE” read?
Its value is “A (compounds of the present invention having an A2 value of less than 100 nM are represented by A)”.

O=C(/C=C1\CCCOc2cc(C(F)(F)F)ccc21)Nc1cccc2c(O)cccc12 [Example 150, (E)-2-(8-trifluoromethyl-3,4-dihydrobenzo[b]oxepin-5(2H)-ylidene)-N-(5-hydroxynaphthalen-1-yl)acetamide] was tested. Which “A2 VALUE” did it give?
The value was “A (compounds of the present invention having an A2 value of less than 100 nM are represented by A)”.

How did the “A2 VALUE” turn out when O=C(/C=C1\CCNc2cc(C(F)(F)F)ccc21)NC1CCc2cccnc2C1 (centres unmarked) [Example 49, (E)-2-(7-trifluoromethyl-2,3-dihydroquinolin-4(1H)-ylidene)-N-(5,6,7,8-tetrahydroquinolin-7-yl)acetamide] was run?
Its value is “B (compounds having an A2 value of 100 nM or more are represented by B)”.

Which “A2 VALUE” does the source give for CC1(C)C/C(=C\C(=O)Nc2cccc3c2CC(O)CN3)c2ccc(C(F)(F)F)cc2O1 (centres unmarked) [Example 245, (E)-2-(7-trifluoromethyl-2,2-dimethylchroman-4-ylidene)-N-(3-hydroxy-1,2,3,4-tetrahydroquinolin-5-yl)acetamide] here?
The value was “A (compounds of the present invention having an A2 value of less than 100 nM are represented by A)”.
